Test systems include LOX IMVI; SW-620; RPMI-8226; HOP-92; SF-268; ACHN; NCI-H460; HCT-15; HCC 2998; SF-539; M19-MEL; UO-31; SN12C; KM12; EKVX; OVCAR-5; COLO 205.
Common to all, as to assay: NCI-60 cell line screen, 48 h

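Cultured in 96-well plates, cells were exposed to test compound for 48 hours across five concentrations. At the GI50, growth is halved.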 Activity calls are given as the source filed them. No stated cut-off is given here; in the data, active = GI50 up to about 1.1 µM and inactive = higher.

Consider `NC(=O)c1ncn(C2OC(CO)C(O)C2O)c1O` (stereo not drawn), for which the GI50 in the assay on LOX IMVI is > 100 µM (inactive); in the assay with SW-620 it was 44.4 µM (inactive); in the assay on RPMI-8226, > 100 µM (inactive); in the assay with HOP-92, 46.8 µM (inactive); in the assay with SF-268 it was > 100 µM (inactive); in the assay on ACHN, > 100 µM (inactive). The GI50 in the assay on NCI-H460 is 53.7 µM (inactive); in the assay on HCT-15, 65.2 µM; in the assay on HCC 2998, 56.8 µM (inactive); in the assay with SF-539, > 100 µM (inactive); with M19-MEL it was > 100 µM (inactive); with UO-31 it was 61.9 µM (inactive). The GI50 with SN12C is > 100 µM (inactive); in the assay on KM12, 46.6 µM (inactive); with EKVX it was > 100 µM (inactive); with OVCAR-5, 58.1 µM (inactive).
Take `CCN(CC)C(=S)N/N=C(\C)c1ccccc1O`: the GI50 was 15.5 µM (inactive) in the assay on LOX IMVI; 22.9 µM (inactive) with SW-620; 18.5 µM (inactive) with RPMI-8226; 17.9 µM (inactive) in the assay with SF-268; 14.5 µM (inactive) in the assay with ACHN; 4.84 µM (inactive) in the assay with NCI-H460. Moreover, the GI50 is 3.72 µM with HCT-15; 13.4 µM (inactive) with HCC 2998; 18 µM (inactive) in the assay on SF-539; 40.9 µM (inactive) in the assay with COLO 205; 39.9 µM (inactive) with M19-MEL; 14.3 µM (inactive) in the assay with UO-31. Also, the GI50 in the assay on SN12C was 20.9 µM (inactive); in the assay on KM12 it was 15.5 µM (inactive); in the assay with EKVX, 36.4 µM (inactive).
Consider `Cn1cnc2[nH]c(=O)[nH]c(=S)c21`, for which the GI50 with SW-620, with RPMI-8226, in the assay with HOP-92, in the assay with SF-268, in the assay on ACHN and in the assay with NCI-H460 was > 100 µM (inactive) throughout. The GI50 with HCT-15 was over 100 µM; in the assay on HCC 2998, > 100 µM (inactive); in the assay on SF-539, > 100 µM (inactive); with COLO 205, > 100 µM (inactive); in the assay on M19-MEL, > 100 µM (inactive); with UO-31, > 100 µM (inactive). The GI50 in the assay with SN12C, with KM12, in the assay on EKVX and in the assay with OVCAR-5 was > 100 µM (inactive) throughout.
For `Nc1ccc(C(=O)N/C(=C\C=C\c2ccco2)c2nc3c4c(ccc3[nH]2)C(=O)c2ccccc2C4=O)cc1`, the GI50 was 25.5 µM (inactive) with LOX IMVI; 33 µM (inactive) in the assay on SW-620; 3.21 µM (inactive) in the assay with RPMI-8226; 37 µM (inactive) with HOP-92; 10.2 µM (inactive) in the assay on SF-268; 10.8 µM (inactive) with ACHN. Also, the GI50 in the assay with HCT-15 was 31.9 µM; with HCC 2998 it was 44.9 µM (inactive); in the assay with SF-539, 17.2 µM (inactive); with COLO 205 it was 61.1 µM (inactive); in the assay on M19-MEL, 79.6 µM (inactive); with UO-31 it was 2.34 µM (inactive). The GI50 was 29.4 µM (inactive) in the assay with SN12C, 13.6 µM (inactive) in the assay on KM12, 28.1 µM (inactive) with EKVX and > 100 µM (inactive) with OVCAR-5.
As to `O=C1C(c2ccccc2)=C(c2ccccc2)C(c2ccc(Cc3ccc(C4=C(c5ccccc5)C(=O)C(c5ccccc5)=C4c4ccccc4)cc3)cc2)=C1c1ccccc1`, the GI50 in the assay with LOX IMVI, in the assay with SW-620, in the assay on RPMI-8226, in the assay with HOP-92, in the assay on SF-268 and with NCI-H460 was > 100 µM (inactive) throughout. For the same compound, the GI50 is over 100 µM in the assay on HCT-15; > 100 µM (inactive) in the assay on SF-539; > 100 µM (inactive) in the assay on COLO 205; > 100 µM (inactive) with M19-MEL; > 100 µM (inactive) with UO-31; > 100 µM (inactive) with KM12. In addition, the GI50 with EKVX and in the assay on OVCAR-5 was > 100 µM (inactive) each time.
On to `NC(CCCCN/C=C1/N=C(c2ccccc2)OC1=O)C(=O)O` (stereo not drawn), for which the GI50 in the assay on LOX IMVI, in the assay with SW-620, with RPMI-8226, in the assay on HOP-92, in the assay on SF-268 and with ACHN was > 100 µM (inactive) each time. In addition, the GI50 in the assay with NCI-H460 was > 100 µM (inactive); with HCT-15, over 100 µM; in the assay with HCC 2998 it was > 100 µM (inactive); in the assay with SF-539, > 100 µM (inactive); in the assay with COLO 205 it was > 100 µM (inactive); in the assay with M19-MEL it was > 100 µM (inactive). Moreover, the GI50 with UO-31, in the assay with SN12C, in the assay with EKVX and in the assay on OVCAR-5 was > 100 µM (inactive) in each case.
On to `CC(C)c1cccc(C(C)C)c1NC(=O)C(=O)Cc1nc2ccc([N+](=O)[O-])cc2nc1O`, for which the GI50 in the assay with LOX IMVI is 23.2 µM (inactive); in the assay on SW-620, 71.6 µM (inactive); in the assay with HOP-92 it was 50.6 µM (inactive); in the assay with ACHN, 54.5 µM (inactive); in the assay with NCI-H460, 70.1 µM (inactive); with HCT-15, 9.31 µM. Moreover, the GI50 is 39.6 µM (inactive) with HCC 2998; 78.3 µM (inactive) in the assay on SF-539; 41.8 µM (inactive) with COLO 205; 80.9 µM (inactive) in the assay on M19-MEL; > 100 µM (inactive) in the assay with UO-31; 13.5 µM (inactive) in the assay on KM12. The values for the GI50 in the assay on EKVX and with OVCAR-5 were 44.2 µM (inactive) and > 100 µM (inactive), respectively.
Consider `C/C(=N\NC(=N)N)C(CN(CC(C)C)CC(C)C)C(=O)Nc1ccc(C)cc1C` (stereo not drawn), for which the GI50 in the assay with LOX IMVI was > 100 µM (inactive); with SW-620, > 100 µM (inactive); in the assay with HOP-92, 59.2 µM (inactive); in the assay with SF-268, > 100 µM (inactive); in the assay with ACHN, > 100 µM (inactive); in the assay on NCI-H460, > 100 µM (inactive). Also, the GI50 was over 100 µM in the assay with HCT-15; > 100 µM (inactive) in the assay on HCC 2998; > 100 µM (inactive) with SF-539; > 100 µM (inactive) with COLO 205; > 100 µM (inactive) with M19-MEL; 54.7 µM (inactive) with UO-31. For the same compound, the GI50 is > 100 µM (inactive) with SN12C, > 100 µM (inactive) with KM12, 81.5 µM (inactive) in the assay with EKVX and > 100 µM (inactive) in the assay with OVCAR-5.
In the case of `Cc1ccc2nc3c(C)cc(=O)cc-3sc2c1`, the GI50 in the assay with SW-620 was 17.2 µM (inactive); with HOP-92, 34.2 µM (inactive); with SF-268, 25.6 µM (inactive); in the assay on ACHN it was 17.7 µM (inactive); in the assay on NCI-H460 it was 23.4 µM (inactive); in the assay with HCT-15, 16 µM. Moreover, the GI50 in the assay on HCC 2998 is 26.9 µM (inactive); with SF-539 it was 18.9 µM (inactive); in the assay on COLO 205, 27.6 µM (inactive); in the assay with M19-MEL, 15.9 µM (inactive); in the assay with UO-31 it was 32 µM (inactive); with SN12C it was 21.3 µM (inactive). Also, the GI50 in the assay on KM12 is 22.9 µM (inactive); in the assay with EKVX, 28.2 µM (inactive); in the assay with OVCAR-5, 27.9 µM (inactive).
Turning to `COC(=O)NC(=O)c1cn(C2OC(CO)C(O)C2O)c(=O)[nH]c1=O` (stereo not drawn), the GI50 with LOX IMVI, in the assay on SW-620, with RPMI-8226, in the assay with HOP-92, in the assay on SF-268 and in the assay on ACHN was > 100 µM (inactive) throughout. Besides, the GI50 in the assay on NCI-H460 is > 100 µM (inactive); in the assay on HCT-15, over 100 µM; in the assay on HCC 2998 it was > 100 µM (inactive); in the assay with SF-539, > 100 µM (inactive); with COLO 205, > 100 µM (inactive); in the assay with M19-MEL, > 100 µM (inactive). The GI50 with UO-31, with SN12C, in the assay with KM12 and in the assay with OVCAR-5 was > 100 µM (inactive) in each case.
For `CN(C)CCNC(=O)c1c2ccccc2cc2ccccc12`, the GI50 was 13.5 µM (inactive) in the assay on LOX IMVI; 34.4 µM (inactive) in the assay with SW-620; 17.5 µM (inactive) with RPMI-8226; 60.4 µM (inactive) in the assay on HOP-92; 44.7 µM (inactive) in the assay with SF-268; 32.4 µM (inactive) in the assay with ACHN. The GI50 with NCI-H460 is 18.1 µM (inactive); with HCT-15, 36 µM; in the assay with HCC 2998, 32.7 µM (inactive); in the assay on SF-539 it was 32.7 µM (inactive); in the assay on COLO 205 it was 18.2 µM (inactive); with M19-MEL, 33.2 µM (inactive). Further, the GI50 is 26.2 µM (inactive) in the assay with UO-31; 34.4 µM (inactive) in the assay on SN12C; 42.8 µM (inactive) in the assay on KM12; > 100 µM (inactive) in the assay with EKVX; 50.9 µM (inactive) in the assay with OVCAR-5.
Consider `O=C(N/C(=C\c1ccc([N+](=O)[O-])cc1)c1nc2c(O)nc(S)nc2[nH]1)c1ccccc1`, for which the GI50 is > 100 µM (inactive) in the assay with SW-620; 43.7 µM (inactive) with HOP-92; > 100 µM (inactive) with SF-268; > 100 µM (inactive) in the assay with ACHN; over 100 µM with HCT-15; > 100 µM (inactive) in the assay on HCC 2998. The GI50 in the assay with SF-539 is > 100 µM (inactive); with COLO 205, > 100 µM (inactive); with M19-MEL it was > 100 µM (inactive); in the assay on UO-31 it was 30.8 µM (inactive); with SN12C, > 100 µM (inactive); with KM12, > 100 µM (inactive). Moreover, the GI50 in the assay with EKVX and with OVCAR-5 was > 100 µM (inactive) each time.
On to `OCCN(CCO)c1cccc(N(CCO)CCO)c1`, for which the GI50 with LOX IMVI, in the assay with SW-620, with RPMI-8226, in the assay on HOP-92, in the assay on SF-268 and in the assay on ACHN was > 100 µM (inactive) in each case. Moreover, the GI50 in the assay on NCI-H460 was > 100 µM (inactive); in the assay with HCT-15, over 100 µM; in the assay with COLO 205, > 100 µM (inactive); in the assay with M19-MEL, > 100 µM (inactive); with UO-31, 28.6 µM (inactive); in the assay on KM12, > 100 µM (inactive). In addition, the GI50 in the assay on EKVX was > 100 µM (inactive).
